For orientation: half-life means the time needed for the level to fall by half in the phase considered.

Structures are written as SMILES.

Here are results for two compounds from US6399100B1, “Controlled release pharmaceutical compositions containing tiagabine” (Elan Corporation, plc, priority 1997, dated 2002).

Data set [1] in a line: Aqueous solubility of raw material. The text has this: The tiagabine employed in the following examples is the monohydrate crystalline form for the hydrochloride salt of the R isomer.
For data set [2] the following is noted: four hours after ingestion, deliberate overdose; cited from earlier work.
The conditions of data set [3]: cited from earlier work.

Take `Cc1ccsc1C(=CCCN1CCCC(C(=O)O)C1)c1sccc1C.Cl` (centres unmarked) [tiagabine hydrochloride monohydrate, N-(4,4-di(3-methylthien-2-yl)but-3-enyl) nipecotic acid hydrochloride]: the aqueous solubility result in data set [1] is “high”.

For the compound `Cc1ccsc1C(=CCCN1CCCC(C(=O)O)C1)c1sccc1C` (centres unmarked) [tiagabine, N-(4,4-di(3-methylthien-2-yl)but-3-enyl) nipecotic acid], in data set [2], the Plasma levels was 3100 ng/mL and the “plasma level relative to typical steady state therapeutic dosing levels” value is listed as 30 times. For the same compound, the half-life in data set [3] (in humans) is 5 to 8 h. Also, the elimination half-life in data set [3] (lowered by enzyme inducers) was 2 to 3 h.
